For series [1] the following is noted: acid (counterion) used in salt screen; cited from earlier work.
Series [2] is described as follows: estimated solubility by adding test solvent in aliquots to weighed solid, visual inspection. In kind it is physicochemical. The procedure:
Solubilities of the compound of Formula (I), free base, in a few solvents were estimated. The experiments were carried out by adding the test solvent in aliquots to weighed portions of solid. Whether dissolution had occurred was judged by visual inspection after addition of each solvent aliquot. Solubility numbers were calculated by dividing the weight of the sample by total amount of solvent used to dissolve the sample. The actual solubilities may be greater than the numbers calculated because of the use of solvent aliquots that were too large or because of slow dissolution rates. […] The solubility number is expressed as “greater than or equal to” if dissolution occurred on addition of the first solvent aliquot.
Solubilities of Fumarate Salt Form A are shown in Tables 8 and 9, in selected solvents and aqueous binary mixtures.
Solubilities of the compound of Formula (I), Fumarate Salt Form A, are shown in Tables 15 and 16, in selected solvents and aqueous binary mixtures.

The nature of series [3]: water solubility, visual solubility estimation using pipet method. The class given is physicochemical. The note with it: thermodynamic from solid.
Series [4] is described as follows: dynamic vapor sorption (DVS) analysis, TA Instruments Q5000, 5 to 95% RH. In kind it is physicochemical. The procedure: For Fumarate Salt Form A, Dynamic vapor sorption (DVS) analysis was carried out using a TA Instruments Q5000 Dynamic Vapor Sorption analyser. The instrument was calibrated with standard weights and a sodium bromide standard for humidity. Approximately 10-25 mg of sample was loaded into a metal coated quartz pan for analysis. The sample was analysed at 25° C. with a maximum equilibration time of one hour in 10% relative humidity (RH) steps from 5 to 95% RH (adsorption cycle) and from 95 to 5% RH (desorption cycle). The movement from one step to the next occurred either after satisfying the equilibrium criterion of 0.01% weight change, or when the equilibrium criterion was not met after one hour. The percent weight change values were then calculated.

Series [5] in a line: initial physical stability evaluation at various relative humidity, room temperature, ~1 week (XRPD, Karl Fischer). In kind it is physicochemical. How it is done: In another one or more examples, Karl Fischer titrations (water content analysis) for fumarate salt(s) (e.g., Fumarate Salt Form A) were carried out using a Mettler-Toledo C20 Coulometric KF titrator. The instrument was calibrated using a Hydranal water standard containing 1% water. The titrant was a Hydranal methanol solution.
For initial physical stability evaluation, Fumarate Salt Form A was stored at various relative humidity conditions and room temperature for approximately 1 week (Table 14). Subsamples of Fumarate Salt Form A (approximately 90 mg) were weighed and placed inside relative humidity (RH) jars; after 1 week the samples were analyzed by XRPD and Karl Fisher analysis; the results are summarized in Table 14.

Series [6] can be described thus: slurry of crystalline Fumarate Salt Form A in solvents, XRPD. The class given is physicochemical. The source says: Regarding the use of crystalline Fumarate Salt Form A in polymorph screens, crystalline Fumarate Salt Form A as a starting material was mixed with different solvents under various conditions in attempts to generate polymorphs.
The nature of series [7]: overnight slurry in solvent, NMR analysis of recovered solids. In kind it is physicochemical.

By pKa is commonly meant the negative logarithm of the acid dissociation constant. A word on the solubility: it is how much of the substance goes into solution per volume.

“And” between values parts separate entries of the source, which are not always exact repeats. Equal entries are not always repeated. “Also recorded” adds a separate entry of the source.

Turning to `O=C(O)CNC(=O)c1ccccc1` [hippuric], in series [1], the pKa is reported as 3.55.

As to `CN1CCN([C@@H]2CCCN(c3cnc(C(N)=O)c(Nc4ccc(C5CCN(CC6CCN(c7ccc(C(=O)N[C@H]8CCC(=O)NC8=O)nc7)CC6)CC5)cc4)n3)C2)C1=O.O=C(O)/C=C/C(=O)O` [Fumarate Salt Form A], the “solubility” value was more than 10000 µg/mL in series [2] (acetonitrile/H2O (45/55), aw 0.9, solubility without temperature); 10000 µg/mL in series [2] (aqueous with cosolvent or surfactant or cyclodextrin, thermodynamic from solid, 1,4-dioxane/H2O (60/40), aw 1.0, solubility without temperature, read-out: Solubility); 1000 µg/mL in series [2] (aqueous with cosolvent or surfactant or cyclodextrin, thermodynamic from solid, 1,4-dioxane/H2O (95/5), aw 0.4, solubility without temperature, read-out: Solubility); more than 1000 µg/mL in series [2] (aqueous with cosolvent or surfactant or cyclodextrin, thermodynamic from solid, 2-propanol/H2O (80/20), aw 0.9, at 45° C., read-out: Solubility); less than 1000 µg/mL in series [2] (aqueous with cosolvent or surfactant or cyclodextrin, thermodynamic from solid, 2-propanol/H2O (80/20), aw 0.9, solubility without temperature, read-out: Solubility); 6000 µg/mL in series [2] (aqueous with cosolvent or surfactant or cyclodextrin, thermodynamic from solid, acetone/H2O (70/30), aw 0.85, solubility without temperature, read-out: Solubility). Besides, the solubility in series [2] (aqueous with cosolvent or surfactant or cyclodextrin, thermodynamic from solid, acetonitrile/H2O (45/55), aw 0.9, solubility without temperature, read-out: Solubility) is more than 10000 µg/mL; in series [2] (aqueous with cosolvent or surfactant or cyclodextrin, thermodynamic from solid, ethanol/H2O (70/30), aw 0.8, solubility without temperature, read-out: Solubility), 4000 µg/mL; in series [2] (aqueous with cosolvent or surfactant or cyclodextrin, thermodynamic from solid, methanol/H2O (50/50), aw 0.75, solubility without temperature, read-out: Solubility), 2000 µg/mL; in series [2] (aqueous with cosolvent or surfactant or cyclodextrin, thermodynamic from solid, tetrahydrofuran/H2O (80/20), aw 1, solubility without temperature, read-out: Solubility), more than 9000 µg/mL; in series [2] (organic solvent or mixture, thermodynamic from solid, 1,4-dioxane, at 60° C., read-out: Solubility) it was 1000 µg/mL; in series [2] (organic solvent or mixture, thermodynamic from solid, acetone, at 60° C., read-out: Solubility), less than 1000 µg/mL. Further, the solubility in series [2] (organic solvent or mixture, thermodynamic from solid, acetonitrile (ACN), at 60° C., read-out: Solubility) is less than 1000 µg/mL; in series [2] (organic solvent or mixture, thermodynamic from solid, dichloromethane (DCM), at 60° C., read-out: Solubility), less than 1000 µg/mL; in series [2] (organic solvent or mixture, thermodynamic from solid, dimethylformamide (DMF), at RT, read-out: Solubility), more than 50000 µg/mL; in series [2] (organic solvent or mixture, thermodynamic from solid, ethanol (EtOH), at 60° C., read-out: Solubility) it was less than 1000 µg/mL; in series [2] (organic solvent or mixture, thermodynamic from solid, ethyl formate, at 60° C., read-out: Solubility) it was less than 1000 µg/mL; in series [2] (organic solvent or mixture, thermodynamic from solid, methanol (MeOH), at RT, read-out: Solubility), 1000 µg/mL. The solubility is less than 1000 µg/mL in series [2] (organic solvent or mixture, thermodynamic from solid, methyl ethyl ketone (MEK), at 60° C., read-out: Solubility); less than 1000 µg/mL in series [2] (organic solvent or mixture, thermodynamic from solid, tetrahydrofuran (THF), at 60° C., read-out: Solubility); less than 1000 µg/mL in series [2] (thermodynamic from solid, water, at 60° C., read-out: Solubility); less than 300 µg/mL in series [3]. For the same compound, the “solubility in aqueous solvents with high water activities (qualitative)” value in series [2] (polymorph screening by salt formation in situ) is listed as “soluble”. Also, the “DVS: water uptake in the range 40-75% RH” value in series [4] is listed as “approximately 0.5%”. In series [4] (25° C.), the “DVS: weight gain up to 95% RH” value is listed as “approximately 4%”. Also, the “DVS: hygroscopicity” value in series [4] (25° C., 5 to 95% RH) is reported as “Moderately hygroscopic”. For the same compound, in series [4] (material after sorption/desorption cycle), the “Post-DVS XRPD” value was “Unchanged; also recorded: consistent with Fumarate Salt Form A exhibiting some peak shifting at higher angles; also recorded: Form A, high angle peak shifting”. Moreover, the “DVS: water absorbed over each of the RH ranges 5 to 35%; 35 to 85%; 85 to 95% RH” value in series [4] (one third of the total uptake per range) was “Approximately 1%”. For the same compound, the “DVS: loss from 95 to 5% RH” value in series [4] (~800-mg scale lot) is on record as 3% loss from 95 to 5% RH. The “DVS: loss upon drying at 5% RH” value in series [4] (~800-mg scale lot) is reported as 0% loss upon drying at 5% RH. The “KF-Oven % Water, Av” value was 1.23% in series [5] (RT, 20% RH); 1.59% in series [5] (RT, 39% RH); 1.58% in series [5] (RT, 58% RH); 1.73% in series [5] (RT, 75% RH); 3.86% in series [5] (RT, 97% RH); 1.08% in series [5] (RT, ~0% RH). In addition, the “KF-Oven % Water, single determinations” value was 1.22% and 1.24% in series [5] (RT, 20% RH); 1.67% and 1.50% in series [5] (RT, 39% RH); 1.53% and 1.63% in series [5] (RT, 58% RH); 1.82% and 1.63% in series [5] (RT, 75% RH); 3.77% and 3.94% in series [5] (RT, 97% RH); 1.14% and 1.01% in series [5] (RT, ~0% RH). For the same compound, the KF-Oven water in series [5] (RT, 20% RH) was 0.7 mol/mol; in series [5] (RT, 39% RH) it was 0.9 mol/mol; in series [5] (RT, 58% RH) it was 0.9 mol/mol; in series [5] (RT, 75% RH) it was 0.9 mol/mol; in series [5] (RT, 97% RH), approximately 2.1 mol/mol; in series [5] (RT, ~0% RH), 0.6 mol/mol. Also, the “XRPD Result” value is “Form A” in series [5] (RT, 20% RH); “Form A” in series [5] (RT, 39% RH); “Form A” in series [5] (RT, 58% RH); “Form A” in series [5] (RT, 75% RH); “Form A” in series [5] (RT, 97% RH); “Form A” in series [5] (RT, ~0% RH). For the same compound, the “KF-Oven water (moles)” value in series [5] (RT, ~0% RH) is given as “approximately 0.6 moles”. Also, in series [5] (room temperature), the “water content in the relative humidity range 40-75% RH (Karl Fisher)” value is recorded as “approximately 0.9 moles”. Also, the “changes by XRPD after storage at various relative humidity conditions” value in series [5] (room temperature, 0 to 97% RH) was “no changes were observed”. For the same compound, the “stability upon slurry in aqueous binary mixtures with high water activities (XRPD)” value in series [6] (50° C. for 1 week) is on record as “appeared to be stable”. In series [6] (e.g., dioxane/water 95:5, aw 0.4), the “result of slurries in non-aqueous and some low water activity solvents (XRPD)” value was “disordered/low crystalline materials”.

For the compound `O=C(O)[C@H](O)[C@@H](O)[C@H](O)[C@H](O)CO` [D-gluconic], the pKa in series [1] was 3.76.

As to `CN1CCN([C@@H]2CCCN(c3cnc(C(N)=O)c(Nc4ccc(C5CCN(CC6CCN(c7ccc(C(=O)N[C@H]8CCC(=O)NC8=O)nc7)CC6)CC5)cc4)n3)C2)C1=O.O=C(O)/C=C\C(=O)O` [Maleate Salt Form A], the solubility in series [3] is less than 300 µg/mL. The “1H NMR, post-EtOH slurry” value in series [7] (slurry stirred overnight in EtOH) is “Consistent with a 1:1 salt”. Further, the “1H NMR, post-water slurry” value in series [7] (slurry stirred overnight in water) is given as “Not consistent with 1:1 salt (0.4”.

The values are drawn from patent US20250136579A1, “SALTS AND FREE BASES OF BIFUNCTIONAL COMPOUND AND POLYMORPH FORMS THEREOF” (NURIX THERAPEUTICS, INC., priority 2023, published 2025).
